Data from US7452865B2, “Antagonistic analogs of GH RH (2003)” (The Administrare's of the Tulane Educational Fund, priority 2004, dated 2008).
Several values for one entry are separate records, joined by “and”; a condition that tells them apart may be missing. Equal entries are not always repeated.

System: hGH-RH(1-29)NH2 induced GH release
Test: Inhibition of GH release in superfused rat pituitary system
Format: cell-based
Method: The analogs were tested in vitro in a test described earlier (S. Vigh and A. V Schally, Peptides 5:241-[…], 1984) with modification (Z. Rekasi and A. V. Schally, P.N.A.S. 90:2146-2149, 1993).
Briefly, the cells are preincubated with peptides for 9 minutes (3 mL) at various concentrations. Immediately after the incubation, 1 nM hGH-RH(1-29)NH2 is administered for 3 minutes (1 mL) 10 minute response). To check the duration of the antagonistic effect of the analogue, 1 nM hGH-RH(1-29)NH2 is applied 30, 60, 90, and 120 minutes later for 3 minutes [30, 60, 90, 120 min responses]. Net integral values of the GH responses are evaluated. GH responses are compared to and expressed as percent of the original GH response induced by 1 nM GH-RH(1-29)NH2 The effect of the new antagonists are compared to that of [Ac-Tyr^1, D-Arg^2]hGH-RH(1-29)NH2, the “Standard antagonist”.
Rat GH levels in aliquots of undiluted and diluted superfusion samples were measured by double-antibody radioimmunoassay using materials supplied by the National Hormone and Pituitary Program, Baltimore, Md. The results of RIA were analyzed with a computer program developed in our institute (V. Csernus and A. V. Schally, in Neuroendocrine Research Methods, Harwood Academic (Greenstein, B. D. ed., London, pp. 71-109, 1991), hereby incorporated by reference.

[1] = antagonist 30 nM, 1 nM hGH-RH(1-29)NH2 at 0 min
[2] = antagonist 30 nM, 1 nM hGH-RH(1-29)NH2 at 30 min
[3] = antagonist 30 nM, 1 nM hGH-RH(1-29)NH2 at 60 min
[4] = antagonist 30 nM, 1 nM hGH-RH(1-29)NH2 at 90 min
[5] = antagonist 30 nM, 1 nM hGH-RH(1-29)NH2 at 120 min

Row | Substance | GH response (% of control) 0 min [1] | GH response (% of control) 30 min [2] | GH response (% of control) 60 min [3] | GH response (% of control) 90 min [4] | GH response (% of control) 120 min [5] | GH response (% of control) 0 min (antagonist 10 nM, 0 min) | GH response (% of control) 30 min (antagonist 10 nM, 30 min) | GH response (% of control) 60 min (antagonist 10 nM, 60 min) | GH response (% of control) 90 min (antagonist 10 nM, 90 min) | GH response (% of control) 120 min (antagonist 10 nM, 120 min) | endocrine antagonistic potency: inhibition of the GH release stimulated by hGH-RH(1-29)NH2 (in words) (general statement, in vitro and in vivo)
1 | [PhAc-Tyr^1, D-Arg^2, Phe(pCl)^6, Cit^9, Abu^15, Nle^27, Har^28, D-Arg^29]hGH-RH(1-29)NH2 [Peptide 28] | 68 % of control | 7 % of control | 8 % of control | 20 % of control | 34 % of control |  |  |  |  |  | 
2 | [Hca-Tyr^1, D-Arg^2, Phe(pCl)^6, Har^9, Tyr(Me)^10, Abu^15, Nle^27, D-Arg^28, Agm^29]hGH-RH(1-29) [Peptide 51] | 64 % of control and 52 % of control and 87 % of control | 36 % of control and 43 % of control and 35 % of control | 31 % of control and 57 % of control and 46 % of control | 56 % of control and 51 % of control | 58 % of control and 61 % of control |  |  |  |  |  | 
3 | [PhAc-Tyr^1, D-Arg^2, Phe(pCl)^6, Cit^8, Cit^9, Abu^15, Nle^27, Har^28, D-Arg^29]hGH-RH(1-29)NH2 [Peptide 24] | 56 % of control | 13 % of control | 18 % of control | 34 % of control | 60 % of control |  |  |  |  |  | 
4 | [HOOC(CH2)10CO-Tyr^1, D-Arg^2, Phe(pCl)^6, Arg^9, Abu^15, Nle^27, D-Arg^28, Har^29]hGH-RH(1-29)NH2 [Peptide 9] | 47 % of control | 43 % of control | 66 % of control | 63 % of control | 58 % of control |  |  |  |  |  | 
5 | [PhAc-Tyr^1, D-Arg^2, Phe(pCl)^6, Har^9, 3-Pal^10, Abu^15, Nle^27, D-Arg^28, Har^29]hGH-RH(1-29)NH2 [Peptide 40] | 42 % of control | 29 % of control | 26 % of control | 36 % of control | 30 % of control |  |  |  |  |  | 
6 | [PhAc-Tyr^1, D-Arg^2, Phe(pCl)^6, Amp^9, Abu^15, Nle^27, D-Arg^28, Har^29]hGH-RH(1-29)NH2 [Peptide 68] | 37 % of control | 22 % of control | 33 % of control | 29 % of control | 33 % of control |  |  |  |  |  | 
7 | [Hca-Tyr^1, D-Arg^2, Phe(pCl)^6, Har^9, Tyr(Me)^10, Abu^15, Nle^27, D-Arg^28, Har^29, D-Arg^30]hGH-RH(1-29)NH2 [Peptide 58] | 78 % of control and 94 % of control and 64 % of control | 53 % of control and 41 % of control | 56 % of control and 57 % of control and 59 % of control | 47 % of control and 64 % of control and 50 % of control | 64 % of control and 69 % of control |  |  |  |  |  | 
8 | [Hca-Tyr^1, D-Arg^2, Phe(pCl)^6, Har^9, Tyr(Me)^10, Abu^15, Nle^27, D-Arg^28, Har^29, Agm^30]hGH-RH(1-30) [Peptide 59] | 72 % of control and 61 % of control and 93 % of control and 47 % of control | 49 % of control and 50 % of control and 43 % of control and 27 % of control | 46 % of control and 48 % of control and 60 % of control and 37 % of control | 38 % of control and 47 % of control and 57 % of control and 44 % of control | 76 % of control and 47 % of control |  |  |  |  |  | 
9 | [PhAc-Tyr^1, D-Arg^2, Phe(pCl)^6, Arg^9, Amp^10, Abu^15, Nle^27, D-Arg^28, Har^29]hGH-RH(1-29)NH2 [Peptide 30] | 18 % of control | 11 % of control | 7 % of control | 7 % of control | 8 % of control | 60 % of control | 24 % of control | 34 % of control | 32 % of control | 53 % of control | high endocrine antagonistic potencies
10 | [Hca-Tyr^1, D-Arg^2, Phe(pCl)^6, Har^9, Tyr(Me)^10, Abu^15, Nle^27, D-Arg^28, Har^29]hGH-RH(1-29)NH2 [Peptide 45] | 91 % of control and 100 % of control | 100 % of control | 100 % of control | 100 % of control | 99 % of control |  |  |  |  |  | 
11 | [PhAc-Tyr^1, D-Arg^2, Phe(pCl)^6, Arg^9, Abu^15, Nle^27, Har^28, D-Arg^29, hGH-RH(1-29)NH2 [Peptide 15] | 28 % of control | 13 % of control | 11 % of control | 36 % of control | 21 % of control |  |  |  |  |  | 
12 | [PhAc-Tyr^1, D-Arg^2, Phe(pCl)^5, Har^9, Tyr(Me)^10, Cit^11, Abu^15, Nle^27, D-Arg^28, Har^29]hGH-RH(1-29)NH2 [Peptide 65] | 67 % of control | 80 % of control | 89 % of control | 97 % of control | 79 % of control |  |  |  |  |  | 
13 | [PhAc-Tyr^1, D-Arg^2, Phe(pCl)^6, Har^9, Tyr(Me)^10, Aib^15, Nle^27, D-Arg^28, Har^29]hGH-RH(1-29)NHEt [Peptide 49] | 83 % of control | 76 % of control | 90 % of control | 87 % of control | 120 % of control |  |  |  |  |  | 
14 | [CH3(CH2)14CO-Tyr^1, D-Arg^2, Phe(pCl)^6, Arg^9, Abu^15, Nle^27, D-Arg^28, Har^29]hGH-RH(1-29)NH2 [Peptide 12] | 35 % of control | 30 % of control | 35 % of control | 51 % of control | 43 % of control |  |  |  |  |  | 
15 | [Hca-Tyr^1, D-Arg^2, Phe(pCl)^6, Har, Tyr(Me)^10, Abu^15, Nle^27, D-Arg^28, Har^29, Har^30]hGH-RH(1-30)NH2 [Peptide 53] | 43 % of control | 42 % of control | 40 % of control | 36 % of control | 46 % of control |  |  |  |  |  | 
16 | [CH3(CH2)14COD-Phe^0, D-Arg^2, Phe(pCl)^6, Arg^9, Abu^15, Nle^27, D-Arg^28, Har^29]hGH-RH(1-29)NH2 [Peptide 17] | 29 % of control | 51 % of control | 68 % of control | 73 % of control | 61 % of control |  |  |  |  |  | 
17 | [PhAc-Tyr^1, D-Arg^2, Phe(pCl)^6, Abu^8, Arg^9, Abu^15, Nle^27, D-Arg^28, Har^29]hGH-RH(1-29)NH2 [Peptide 27] | 19 % of control | 15 % of control | 23 % of control | 23 % of control | 61 % of control |  |  |  |  |  | 
